According to ChEMBL document CHEMBL3297727, “Endiandric acid analogues from Beilschmiedia ferruginea as dual inhibitors of Bcl-xL/Bak and Mcl-1/Bid interactions” (J Nat Prod, 2014):
Active and inactive are the calls of the source. No cut-off for these calls is given here.

What was measured:
[1] = biological target: T1, Induced myeloid leukemia cell differentiation protein Mcl-1 (Homo sapiens, UniProt Q07820); assay: Displacement of fluorescein-labeled BID from His-tagged MCL-1 (unknown origin) at 100 uM after 1 hr by fluorescence polarization assay relative to control
T1 sequence (Q07820 whole entry): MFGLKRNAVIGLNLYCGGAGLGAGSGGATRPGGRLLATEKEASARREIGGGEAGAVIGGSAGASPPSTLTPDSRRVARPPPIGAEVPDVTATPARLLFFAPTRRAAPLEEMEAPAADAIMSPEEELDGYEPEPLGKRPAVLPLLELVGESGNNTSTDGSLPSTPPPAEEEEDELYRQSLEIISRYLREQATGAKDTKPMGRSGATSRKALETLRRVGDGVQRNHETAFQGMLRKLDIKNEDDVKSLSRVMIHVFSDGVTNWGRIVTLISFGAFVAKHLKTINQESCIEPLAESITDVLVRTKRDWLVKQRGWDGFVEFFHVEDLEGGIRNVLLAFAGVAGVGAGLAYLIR

HCT-116 = assay: Cytotoxicity against human HCT116 cells up to 50 uM after 72 hrs by resazurin-based fluorimetric assay; assay type: functional, cell-based
Bcl-2-like protein 1 [2] = biological target: T2, Bcl-2-like protein 1 (Homo sapiens, UniProt Q07817); assay: Displacement of fluorescein-labeled BAK from His-tagged BCL-XL (unknown origin) after 1 hr by fluorescence polarization assay
T2 sequence (Q07817 whole entry): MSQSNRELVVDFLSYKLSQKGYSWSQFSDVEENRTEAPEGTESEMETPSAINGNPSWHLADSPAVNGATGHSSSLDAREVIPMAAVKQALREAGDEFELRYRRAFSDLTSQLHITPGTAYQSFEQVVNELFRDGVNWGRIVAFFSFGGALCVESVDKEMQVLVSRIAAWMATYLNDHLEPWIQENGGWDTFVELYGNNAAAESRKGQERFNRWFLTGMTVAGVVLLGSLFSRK

K562 [3] = assay: Cytotoxicity against human K562 cells up to 50 uM after 72 hrs by resazurin-based fluorimetric assay; assay type: functional, cell-based
[4] = Drug degradation assessed as conversion to ferrugineic acid F and ferrugineic acid G under diffuse daylight condition at 25 degC for 1 month; assay type: physicochemical; conditions: 730.5 h
[5] = Drug degradation in DMSO assessed as autoxidation at 4 degC incubated under dark condition for 6 months; assay type: physicochemical; conditions: 4383 h
[6] = Drug degradation assessed as conversion to ferrugineic acid F and ferrugineic acid G at 4 degC incubated under dark condition for 3 to 6 months; assay type: physicochemical
[7] = Drug degradation assessed as conversion to ferrugineic acid H and ferrugineic acid I at 4 degC incubated under dark condition for 3 to 6 months; assay type: physicochemical
Bcl-2-like protein 1 [8] = biological target: T2, Bcl-2-like protein 1; assay: Displacement of fluorescein-labeled BAK from His-tagged BCL-XL (unknown origin) at 100 uM after 1 hr by fluorescence polarization assay relative to control
[9] = Drug degradation assessed as conversion to ferrugineic acid H and ferrugineic acid I under diffuse daylight condition at 25 degC for 1 month; assay type: physicochemical; conditions: 730.5 h
[10] = biological target: T1, Induced myeloid leukemia cell differentiation protein Mcl-1; assay: Displacement of fluorescein-labeled BID from His-tagged MCL-1 (unknown origin) after 1 hr by fluorescence polarization assay
K562 [11] = assay: Cytotoxicity against human K562 cells after 72 hrs by resazurin-based fluorimetric assay; assay type: functional, cell-based; conditions: K562, 72 h
[12] = Cytotoxicity against human HCT116 cells after 72 hrs by resazurin-based fluorimetric assay; assay type: functional, cell-based; conditions: HCT-116, 72 h

| inhibition [1] | Ki (Bcl-2-like protein 1 [2]) | Stability [4] | Stability [6] | Stability [7] | inhibition (Bcl-2-like protein 1 [8]) | Stability [9] | Ki [10] | SMILES | Activity (HCT-116) | Activity (K562 [3]) | Stability [5] | IC50 (K562 [11]) | IC50 [12] |
| --- | --- | --- | --- | --- | --- | --- | --- | --- | --- | --- | --- | --- | --- |
| 0% | > 100 µM | Unstable | Unstable | Unstable | 22% | Unstable | – | O=C(O)[C@@H]1C=C[C@@H]2C[C@H]3[C@H](CCCc4ccc(O)cc4)[C@H]4C=C[C@@H]1[C@@H]2[C@H]43 (relative stereo) | inactive | inactive | Stable | – | – |
| 85% | 19.2 µM | Unstable | Unstable | Unstable | 60% | Unstable | 14 µM | O=C(O)[C@@H]1C=C[C@@H]2C[C@H]3[C@H](CCCCCc4ccc(O)cc4)[C@H]4C=C[C@@H]1[C@@H]2[C@H]43 (relative stereo) | inactive | inactive | Stable | – | – |
| 82% | 12.6 µM | – | – | – | 93% | – | 13 µM | O=C(O)[C@@H]1C=C[C@@H]2C[C@H]3[C@H](CCCCCCCc4ccc(O)cc4)[C@H]4C=C[C@@H]1[C@@H]2[C@H]43 (relative stereo) | inactive | inactive | Stable | – | – |
| 82% | > 100 µM | – | – | – | 39% | – | 5.2 µM | O=C(O)[C@@H]1C=C[C@@H]2C[C@H]3[C@H](CCCc4ccc(O)c(O)c4)[C@H]4C=C[C@@H]1[C@@H]2[C@H]43 (relative stereo) | inactive | inactive | Stable | – | – |
| 14% | – | – | – | – | 20% | – | – | O=C(O)[C@@H]1C=C[C@@H]2C[C@H]3[C@H](CC/C=C/Cc4ccc(O)cc4)[C@H]4C=C[C@@H]1[C@@H]2[C@H]43 (relative stereo) | inactive | inactive | Stable | – | – |
| 0% | > 100 µM | – | – | – | 22% | – | – | O=C(O)/C=C/[C@H]1[C@H]2C=C[C@H]3[C@@H]1C[C@H]1[C@H](CCCc4ccc(O)cc4)[C@@H]2[C@@H]31 (relative stereo) | inactive | inactive | – | – | – |
| – | – | – | – | – | – | – | – | O=C(O)C1=CC(=O)[C@@H]2C[C@H]3[C@H](CCCc4ccc(O)cc4)[C@H]4C=C[C@@H]1[C@@H]2[C@H]43 (relative stereo) | inactive | inactive | – | – | – |
| 0% | – | – | – | – | 7% | – | – | O=C(O)C1=C[C@@H](O)[C@@H]2C[C@H]3[C@H](CCCc4ccc(O)cc4)[C@H]4C=C[C@@H]1[C@@H]2[C@H]43 (relative stereo) | inactive | inactive | – | – | – |
| 3% | – | – | – | – | – | – | – | O=C(O)C1=C[C@H](O)[C@@H]2C[C@H]3[C@H](CCCCCc4ccc(O)cc4)[C@H]4C=C[C@@H]1[C@@H]2[C@H]43 (relative stereo) | – | – | – | – | – |
| – | – | – | – | – | – | – | – | CCC1=C[C@@H]2CN(C1)Cc1c([nH]c3ccccc13)[C@@](C(=O)OC)(c1cc3c(cc1OC)N(C)[C@H]1[C@@](O)(C(=O)OC)[C@H](OC(C)=O)[C@]4(CC)C=CCN5CC[C@]31[C@@H]54)C2 [VINORELBINE] | – | – | – | 0.006 µM | 0.015 µM |
